Experimental findings from PubChem BioAssay (NCI) are described below.

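Step 1: Grow cells in 96-well plates. Step 2: Expose to compound for 48 hours at 5 concentrations. Step 3: Interpolate endpoints linearly; if unreached, use highest concentration. Definition used: TGI = concentration required for complete inhibition of growth.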 Some results are limits rather than exact numbers.

Assay in all cases: inhibition of tumour cell growth, NCI panel, 48 h
Test [1] relates to ACHN renal.
Test [2] relates to PC-3 prostate.
In test [3] the test system is MDA-MB-231 breast.
The subject of test [4] is MCF7 breast.
Test [5] concerns SW-620 colon.
Test [6] concerns SNB-19 CNS.
For test [7], the system named is SF-295 CNS.
The subject of test [8] is OVCAR-4 ovarian.
Test [9] concerns HL-60(TB) leukemia.
Test [10] has as its system NCI-H226 lung.
The test system of test [11] is MDA-N.
For test [12], the system named is KM12 colon.
The subject of test [13] is IGROV1 ovarian.
Test [14] concerns HS 578T breast.

`Brc1ccc(CCNCCN2CCCCC2)cc1`: the TGI in test [1] amounted to 42.6 µM; in test [2], 31.7 µM; in [3], 21.4 µM; in test [4], 29.5 µM; in test [5], 31.1 µM; in [6], 34 µM. Moreover, the TGI was 32.3 µM in test [7]; 48.1 µM in test [8]; > 100 µM in [9]; 59 µM in test [10]; 23.8 µM in [11]; 30.2 µM in [12]. In addition, the TGI in [13] came to 31 µM; in test [14], 38.1 µM.

On to `OCCCCCNc1c2ccccc2nc2ccccc12`, for which the TGI was found to be 1.42 µM in test [1]; 7.2 µM in test [2]; 10.7 µM in test [3]; 6.11 µM in [4]; 15.9 µM in test [5]; 10.8 µM in test [6]. Besides, the TGI in [7] was 10.5 µM; in [8], 11.4 µM; in test [9], > 39 µM; in test [11], 7.42 µM; in test [12] it was 14.3 µM; in test [13], 12.2 µM. The TGI in test [14] came to 8.57 µM.

`CN(CCC#N)c1ccc(/C=C2\SC(=S)NC2=O)cc1`: the TGI in test [1], in test [2], in test [3], in [4], in test [5] and in test [6] was > 100 µM in each case. In addition, the TGI in test [7], in test [8], in test [9], in test [10], in test [11] and in test [12] was > 100 µM each time. Further, the TGI in test [13] and in test [14] was > 100 µM throughout.

Regarding `C=C(C)C12CC(COC(=O)c3ccccc3)C34OC5(OC1C3C1OC1(CO)C(O)C1(O)C(OC(=O)c3ccccc3)C(C)C(C(C)CCCCCCC5O)C14)O2` (stereo not given), the TGI in test [1], in test [2], in test [3], in test [4], in [6] and in [7] was > 100 µM in each case. Besides, the TGI in test [8], in test [10], in [11], in test [12], in [13] and in test [14] was > 100 µM each time.

For `CCN(CC)CCc1c2c(nc3ccccc13)C(=O)c1cccnc1C2=O`, the TGI in test [2] is 18.6 µM; in test [3], 6.72 µM; in test [4], 1.51 µM; in [5], 12.7 µM; in test [7] it was 5.41 µM; in test [8], 3.69 µM. The TGI in test [9] is 1.41 µM; in test [10], 18.2 µM; in test [11], 4.54 µM; in [12], 6.57 µM; in test [13] it was 5.53 µM; in test [14] it was > 100 µM.

As for `COc1ccccc1N/C(=C\C(=O)C(=O)NC12CC3CC(CC(C3)C1)C2)c1ccccc1`, the TGI in [1], in test [2], in test [3], in [4], in [5] and in test [7] was > 10 µM each time. The TGI in test [8], in [9], in test [10], in [11], in test [12] and in [13] was > 10 µM in each case. The TGI in [14] is > 10 µM.

On to `NC(C(F)(F)F)(C(F)(F)F)P(=O)(Cc1ccccc1)Cc1ccccc1`, for which the TGI in test [1], in test [2], in test [3], in [4], in [5] and in test [6] was > 100 µM in each case. Further, the TGI in test [7], in test [8], in test [9], in [11], in test [12] and in [13] was > 100 µM throughout. Moreover, the TGI in test [14] is > 100 µM.

For the compound `CN(C)/N=N/c1nc2c(c(=O)n(C)c(=O)n2C)n1C`, the TGI in test [1], in test [2], in [3], in [4], in [5] and in test [6] was > 100 µM each time. Besides, the TGI in test [7], in test [8], in test [10], in test [11], in test [12] and in [13] was > 100 µM throughout. In addition, the TGI in test [14] was > 100 µM.

On to `CC1(O)CC(C(F)(F)F)(C(F)(F)F)OC1=O` (stereo not given), for which the TGI in [1], in test [2], in test [3], in [4], in [5] and in [6] was > 10 µM throughout. Further, the TGI in test [7], in [8], in test [10], in test [11], in test [12] and in test [13] was > 10 µM in each case. Moreover, the TGI in test [14] was > 10 µM.

On to `CN1C(=O)C2C(=O)N(Cc3ccccc3)CC(=O)N2c2cccnc21` (stereo not given), for which the TGI in test [1], in [2], in test [3], in test [4], in test [6] and in [7] was > 100 µM in each case. Moreover, the TGI in [8], in [9], in test [10], in test [11], in [12] and in [13] was > 100 µM in each case. In addition, in test [14], the TGI was > 100 µM.

Turning to `O=C(Nc1ccc(Br)cc1)c1c(-c2ccccc2)c2ccc(O)cc2oc1=O`, the TGI in [1], in test [2], in [3], in test [4], in test [5] and in test [7] was > 10 µM in each case. For the same compound, the TGI in test [8], in test [9], in test [10], in test [11], in test [12] and in [13] was > 10 µM each time. Besides, the TGI in test [14] was > 10 µM.

For `O=C(NNC(=S)Nc1ccc(Cl)cc1)c1cc(-c2ccccc2)nc2ccccc12`, the TGI in test [1] was 22.7 µM; in test [2], 15.1 µM; in [3], 29.4 µM; in test [4] it was 17.3 µM; in [5], 18.4 µM; in [6], 21.7 µM. Besides, the TGI in [7] turned out to be 9.22 µM; in [8], 24.3 µM; in test [10], 28.9 µM; in test [11], 6.5 µM; in [12], 22.5 µM; in test [13], 26.7 µM. Further, in test [14], the TGI came to 32.4 µM.

`Nc1cc(CO)cc(Nc2nc3ccc(Cl)cc3c3[nH]c4ccccc4c23)c1`: the TGI in test [1] is 15 µM; in test [2] it was 19.1 µM; in test [3], 12 µM; in [4], 3.92 µM; in test [5], 29.3 µM; in test [6] it was 44.9 µM. The TGI in [7] worked out at 15 µM; in test [9], 52.7 µM; in test [11], 21.1 µM; in test [12], 18.6 µM; in [13], 8.93 µM; in test [14], 36.5 µM.

With `Nc1nc2cc3nc(N)c(N)nc3cc2nc1N`, the TGI in test [1], in test [2], in test [3], in test [4], in test [5] and in [6] was > 100 µM throughout. The TGI in test [7], in [9], in test [10], in test [11], in test [12] and in [13] was > 100 µM in each case. Further, in [14], the TGI was > 100 µM.

In the case of `O=C(O)c1c2c(cc3c1CC1(Cc4ccccc4C1)C3)CCC2`, the TGI in test [1], in test [2], in test [3], in test [4], in [5] and in test [7] was > 100 µM in each case. Besides, the TGI in test [8], in test [9], in test [10], in test [11], in test [12] and in [13] was > 100 µM each time. Also, the TGI in test [14] was > 100 µM.

`COC(=O)C(/C(=N/NC(N)=O)C(=O)Nc1ccc(C)cc1)c1nc2ccc([N+](=O)[O-])cc2[nH]c1=O` (stereo not given): the TGI in [2], in [3], in [4], in test [5], in test [7] and in test [8] was > 100 µM throughout. For the same compound, the TGI in [10], in test [11], in test [12], in test [13] and in [14] was > 100 µM in each case.

As for `Cc1nc(-c2ccc([N+](=O)[O-])cc2)cn2c1nc1ccccc12`, the TGI in test [2], in [3], in test [4], in [5], in [6] and in [7] was > 100 µM each time. Further, the TGI in test [8], in test [9], in [10], in test [11], in test [12] and in [13] was > 100 µM each time. Further, the TGI in [14] is > 100 µM.

As for `S=C(N/N=C\C=N/NC(=S)N1CCCCC1)N1CCCCC1`, the TGI in test [2] is > 100 µM; in [3] it was > 100 µM; in [4] it was > 100 µM; in [5] it was > 100 µM; in test [6], > 100 µM; in [7], > 77.8 µM. Besides, the TGI was > 68.1 µM in test [10]; > 100 µM in test [11]; > 100 µM in test [12]; > 52.7 µM in test [13]; > 51.9 µM in [14].

For the compound `Cc1cc(N(CCC#N)CCC#N)ccc1/C=N/NC(=O)c1cc(Cl)ccc1O`, the TGI in [2], in test [3], in [4], in test [7], in [8] and in test [9] was > 100 µM each time. For the same compound, the TGI in [10], in test [11], in test [13] and in test [14] was > 100 µM in each case.

Regarding `CC(C)c1ccc2[nH]c(O)c(-c3[nH]c4ccccc4c3N=O)c2c1`, the TGI amounted to 14.6 µM in test [1]; 19.4 µM in [2]; 29.8 µM in [3]; 5.71 µM in test [4]; 25.2 µM in test [5]; 36.1 µM in [6]. The TGI in [7] was 16.3 µM; in test [8] it was 17.6 µM; in [10] it was 29.4 µM; in test [11], 19.2 µM; in [12] it was 15.6 µM; in test [13], 21.2 µM. Further, the TGI in test [14] was 17.7 µM.

Consider `COc1ccc(C2CC(c3c(O)ccc4ccccc34)=NN2c2ccc([N+](=O)[O-])cc2[N+](=O)[O-])cc1OC` (stereo not given), for which the TGI was 92.2 µM in [1]; > 70.3 µM in test [2]; > 68.8 µM in test [3]; > 91.7 µM in test [4]; > 100 µM in test [5]; > 60.3 µM in [6]. The TGI is > 87.1 µM in test [7]; > 100 µM in test [8]; 48.9 µM in test [10]; > 100 µM in test [11]; > 76.6 µM in [12]; > 71.2 µM in test [13]. Moreover, the TGI in test [14] is > 89.7 µM.
